Experimental data: paper PMC8151276, “An Integrated Approach toward NanoBRET Tracers for Analysis of GPCR Ligand Engagement” (Molecules, 2021)

How the values were obtained:
Type in all cases: binding
[1] = biological target: T1, CCR2 (Homo sapiens, UniProt P41597); assay: NanoBRET screen HiBiT-CCR2 in HEK293; conditions: CCR2
T1 construct: purchased Promega (in-house HiBiT-GPCR construct library, NanoBRET)
Experimental: (§1) Each tracer candidate was screened across the entire library of HiBiT-GPCR constructs using NanoBRET as the detection modality. As depicted in Figure 4A, the specificity of interactions was evaluated through decrease in BRET due to competitive displacement of a bound tracer by excess parental compound. Each tracer was analyzed for binding to each HiBiT-GPCR fusion in the absence and in the presence of competing parental compound. Briefly, HEK293 cells were transfected with HiBiT-GPCR constructs diluted into promoterless DNA to reduce expression and maximize translocation to the cell surface. Each tracer candidate was then screened at concentrations of 1 μM and 0.1 μM across cells expressing these fusions. Cells were treated for 1.5 h with tracer either alone or in the presence of 20 μM competing parental compound (i.e., control). BRET was measured upon addition of purified LgBiT and subsequent complementation with HiBiT genetically fused to a GPCR. The specificity of interactions was assessed through a decrease in BRET signal due to competitive displacement of the bound tracer. To further gauge the robustness of these interactions, the fold response over the control (i.e., BRETtracer/BRETcontrol) was calculated. We chose a 1.5-fold response, which translates to ≥7-fold signal over noise as the minimal threshold required to score an interaction as positive. […]. Below we highlight the screening results obtained for our exemplary fluorescent tracers based on Clozapine, Amitriptyline and AZD1283.
(§2) HiBiT-GPCR DNA constructs were diluted in 10 mM Tris pH 8 to a final concentration of 0.01 μg/μL, arrayed in 96-well plates and stored at −20 °C. For transfection, HEK293 cells were suspended in Opti-MEM (without phenol red) supplemented with 2% fetal bovine serum (Seradigm) and 100 units/mL penicillin–streptomycin (Gibco) at a final concentration of 220,000 cells/mL and dispensed into white 96-well plates at 90 μL/well. Subsequent transfections and screens were carried using an Agilent Bravo Automated Liquid Handling Platform. First, the 96-well HiBiT DNA arrays were diluted 25-fold in Opti-MEM (without serum or phenol red) to a final concentration of 0.0004 μg/μL and 20 μL of the diluted DNAs were transferred into new 96-well plates. Next, promoterless carrier DNA (1 μg/μL) was diluted 25-fold (0.04 μg/μL) and then dispensed into the diluted arrays at 20 μL/well. Following brief mixing, Viafect transfection reagent (Promega) diluted 16-fold into Opti-MEM was dispensed into the plates at 40 μL/well. After mixing by pipetting, plates were incubated for 10 min on the pipetting station deck. The DNA-transfection reagent complexes were then added to plates containing cells. To facilitate the screen, 10 μL of DNA-transfection reagent complexes were added in duplicates to the top 4 and bottom 4 rows, resulting in two identical 48-well arrays per plate. Plates with transfected cells were incubated for 18–20 h at 37 °C/5% CO2. A screen of each tracer across the entire library using two different concentrations requires duplicate plates of transfected cells. Depending on the number of tracers being screened, transfections can be scaled up using the same ratios. The next day, for each tracer, four 20× screening solutions in tracer dilution buffer (Promega) were prepared: two duplicates at final concentration of 20 μM and two duplicates at a final concentration of 2 μM. A competing unmodified compound was added to one of each duplicate at a final concentration of 400 μM. The four resulting solutions were diluted 4-fold in Opti-MEM without serum or phenol red to generate 5× solutions (5 µM and 0.5 µM tracer +/− 100 μM competing compound). To screen the library, a BioTek MultiFlo FX liquid dispenser was used to dispense 22.5 µL of tracer solution to the top 4 rows and 22.5 µL tracer + competing compound solution to the 4 bottom rows. Plates were briefly mixed on an orbital shaker and incubated for 1.5 h at room temperature. […]

[2] = biological target: T2, PDGFRB (Homo sapiens, UniProt P09619); assay: NanoBRET screen HiBiT-PDGFRB in HEK293; conditions: PDGFRB
T2 construct: purchased Promega (in-house HiBiT-GPCR construct library, NanoBRET)
T2 sequence (P09619 33-1106): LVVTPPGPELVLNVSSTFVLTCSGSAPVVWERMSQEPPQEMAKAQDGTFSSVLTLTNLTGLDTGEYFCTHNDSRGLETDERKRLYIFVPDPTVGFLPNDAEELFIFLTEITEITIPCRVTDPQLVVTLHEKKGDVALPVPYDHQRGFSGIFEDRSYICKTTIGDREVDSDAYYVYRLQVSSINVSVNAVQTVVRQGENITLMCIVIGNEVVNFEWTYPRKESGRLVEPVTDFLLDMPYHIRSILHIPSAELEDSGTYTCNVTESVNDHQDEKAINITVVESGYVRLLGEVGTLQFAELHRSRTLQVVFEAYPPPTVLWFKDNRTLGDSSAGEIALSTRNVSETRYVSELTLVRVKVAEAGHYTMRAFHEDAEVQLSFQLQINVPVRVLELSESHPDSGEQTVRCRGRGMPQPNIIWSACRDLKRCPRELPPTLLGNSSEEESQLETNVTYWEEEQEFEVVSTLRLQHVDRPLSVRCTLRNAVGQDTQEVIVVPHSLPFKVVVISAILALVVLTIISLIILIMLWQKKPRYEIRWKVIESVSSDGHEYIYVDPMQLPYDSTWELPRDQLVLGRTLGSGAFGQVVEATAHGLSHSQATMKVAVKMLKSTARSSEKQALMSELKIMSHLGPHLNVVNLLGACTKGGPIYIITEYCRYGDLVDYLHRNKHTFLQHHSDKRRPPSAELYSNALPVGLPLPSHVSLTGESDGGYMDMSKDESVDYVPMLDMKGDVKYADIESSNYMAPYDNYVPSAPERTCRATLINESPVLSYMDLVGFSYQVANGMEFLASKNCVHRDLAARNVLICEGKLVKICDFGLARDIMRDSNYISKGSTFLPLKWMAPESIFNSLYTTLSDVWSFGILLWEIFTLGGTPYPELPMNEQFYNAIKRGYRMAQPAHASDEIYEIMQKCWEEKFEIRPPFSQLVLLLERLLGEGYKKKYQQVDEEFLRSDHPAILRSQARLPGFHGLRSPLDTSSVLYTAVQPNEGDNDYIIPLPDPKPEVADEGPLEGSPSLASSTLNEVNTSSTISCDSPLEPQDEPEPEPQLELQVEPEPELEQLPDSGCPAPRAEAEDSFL
Experimental: as §1, §2

[3] = biological target: T3, LGR6 (Homo sapiens, UniProt Q9HBX8); assay: NanoBRET screen HiBiT-LGR6 in HEK293; conditions: LGR6
T3 construct: purchased Promega (in-house HiBiT-GPCR construct library, NanoBRET)
T3 sequence (Q9HBX8 25-967): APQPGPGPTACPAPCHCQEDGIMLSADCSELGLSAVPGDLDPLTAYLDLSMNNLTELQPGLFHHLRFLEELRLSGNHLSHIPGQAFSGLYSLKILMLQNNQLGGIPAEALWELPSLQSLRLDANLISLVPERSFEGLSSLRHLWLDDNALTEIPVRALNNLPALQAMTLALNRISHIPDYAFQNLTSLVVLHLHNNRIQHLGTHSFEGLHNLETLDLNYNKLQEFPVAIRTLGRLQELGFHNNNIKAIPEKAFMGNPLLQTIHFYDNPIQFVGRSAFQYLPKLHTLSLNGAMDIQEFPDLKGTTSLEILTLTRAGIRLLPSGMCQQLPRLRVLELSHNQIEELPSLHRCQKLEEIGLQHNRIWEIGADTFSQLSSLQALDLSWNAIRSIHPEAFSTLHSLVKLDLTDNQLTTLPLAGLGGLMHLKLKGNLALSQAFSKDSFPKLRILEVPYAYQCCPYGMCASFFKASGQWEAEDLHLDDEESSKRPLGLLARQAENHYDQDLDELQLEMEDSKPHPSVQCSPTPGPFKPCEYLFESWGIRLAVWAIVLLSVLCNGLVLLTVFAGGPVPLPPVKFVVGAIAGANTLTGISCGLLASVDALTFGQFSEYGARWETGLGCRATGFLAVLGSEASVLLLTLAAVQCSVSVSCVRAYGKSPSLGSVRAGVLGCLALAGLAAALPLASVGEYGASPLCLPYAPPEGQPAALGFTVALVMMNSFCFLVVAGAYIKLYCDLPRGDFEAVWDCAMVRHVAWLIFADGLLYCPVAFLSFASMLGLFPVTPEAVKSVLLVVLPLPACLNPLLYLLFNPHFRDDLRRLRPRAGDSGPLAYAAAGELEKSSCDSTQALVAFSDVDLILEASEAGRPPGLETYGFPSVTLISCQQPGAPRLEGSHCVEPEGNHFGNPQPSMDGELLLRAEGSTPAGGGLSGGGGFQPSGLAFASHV
Experimental: as §1, §2

[4] = biological target: T4, MC4R (Homo sapiens, UniProt P32245); assay: NanoBRET screen HiBiT-MC4R in HEK293; conditions: MC4R
T4 construct: purchased Promega (in-house HiBiT-GPCR construct library, NanoBRET)
T4 sequence (P32245 whole entry): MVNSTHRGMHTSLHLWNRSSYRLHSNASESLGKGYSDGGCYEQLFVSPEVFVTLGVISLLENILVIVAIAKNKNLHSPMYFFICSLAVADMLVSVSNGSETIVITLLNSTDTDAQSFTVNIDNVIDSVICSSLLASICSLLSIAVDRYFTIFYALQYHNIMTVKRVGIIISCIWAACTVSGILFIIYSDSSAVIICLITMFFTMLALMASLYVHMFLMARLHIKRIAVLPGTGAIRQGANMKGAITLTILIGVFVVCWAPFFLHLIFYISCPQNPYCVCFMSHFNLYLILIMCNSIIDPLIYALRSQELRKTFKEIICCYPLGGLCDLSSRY
Experimental: as §1, §2

[5] = biological target: T5, MLNR (Homo sapiens, UniProt O43193); assay: NanoBRET screen HiBiT-MLNR in HEK293; conditions: MLNR
T5 construct: purchased Promega (in-house HiBiT-GPCR construct library, NanoBRET)
T5 sequence (O43193 whole entry): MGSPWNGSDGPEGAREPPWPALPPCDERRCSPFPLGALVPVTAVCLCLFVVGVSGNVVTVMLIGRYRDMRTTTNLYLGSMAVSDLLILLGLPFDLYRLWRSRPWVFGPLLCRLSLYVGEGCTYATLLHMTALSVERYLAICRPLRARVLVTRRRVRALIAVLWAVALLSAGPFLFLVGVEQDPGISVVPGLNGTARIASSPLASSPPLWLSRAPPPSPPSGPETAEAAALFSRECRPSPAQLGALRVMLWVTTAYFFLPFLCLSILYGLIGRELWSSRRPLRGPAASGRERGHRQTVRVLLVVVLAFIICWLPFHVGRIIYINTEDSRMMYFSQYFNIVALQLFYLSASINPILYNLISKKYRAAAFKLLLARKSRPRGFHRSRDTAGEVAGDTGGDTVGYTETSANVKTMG
Experimental: as §1, §2

[6] = biological target: T6, CXCR6 (Homo sapiens, UniProt O00574); assay: NanoBRET screen HiBiT-CXCR6 in HEK293; conditions: CXCR6
T6 construct: purchased Promega (in-house HiBiT-GPCR construct library, NanoBRET)
T6 sequence (O00574 whole entry): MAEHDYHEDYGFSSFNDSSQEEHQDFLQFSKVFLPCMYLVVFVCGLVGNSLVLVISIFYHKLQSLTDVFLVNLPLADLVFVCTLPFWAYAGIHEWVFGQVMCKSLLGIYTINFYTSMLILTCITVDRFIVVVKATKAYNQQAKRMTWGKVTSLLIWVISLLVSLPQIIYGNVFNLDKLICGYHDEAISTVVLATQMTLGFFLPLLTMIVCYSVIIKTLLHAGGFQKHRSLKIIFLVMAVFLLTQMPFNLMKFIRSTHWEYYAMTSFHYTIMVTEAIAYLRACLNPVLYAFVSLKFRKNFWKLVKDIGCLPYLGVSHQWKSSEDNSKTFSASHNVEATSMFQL
Experimental: as §1, §2

T1 sequence (P41597 whole entry): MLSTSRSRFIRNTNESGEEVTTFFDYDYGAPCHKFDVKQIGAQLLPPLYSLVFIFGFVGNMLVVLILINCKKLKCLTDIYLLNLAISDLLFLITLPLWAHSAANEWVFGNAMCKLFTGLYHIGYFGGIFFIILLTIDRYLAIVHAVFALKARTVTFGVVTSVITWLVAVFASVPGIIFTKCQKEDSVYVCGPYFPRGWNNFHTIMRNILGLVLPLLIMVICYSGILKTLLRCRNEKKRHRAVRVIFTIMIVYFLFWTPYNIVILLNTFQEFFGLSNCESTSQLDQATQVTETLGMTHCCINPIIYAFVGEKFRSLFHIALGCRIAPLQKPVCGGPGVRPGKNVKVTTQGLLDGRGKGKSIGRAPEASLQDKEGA

Structure (SMILES) | NanoBRET Fold Response ([1]; tracer 0.1μM) | NanoBRET Fold Response ([1]; tracer 1μM) | NanoBRET Fold Response ([2]; tracer 0.1μM) | NanoBRET Fold Response ([2]; tracer 1μM) | NanoBRET Fold Response ([3]; tracer 0.1μM) | NanoBRET Fold Response ([3]; tracer 1μM) | NanoBRET Fold Response ([4]; tracer 0.1μM) | NanoBRET Fold Response ([4]; tracer 1μM) | NanoBRET Fold Response ([5]; tracer 0.1μM) | NanoBRET Fold Response ([5]; tracer 1μM) | NanoBRET Fold Response ([6]; tracer 0.1μM) | NanoBRET Fold Response ([6]; tracer 1μM) | other results
CN1CCN(C2=Nc3cc(Cl)ccc3Nc3ccc(CNC(=O)CCOCCOCCOCCOCCNC(=O)CCc4ccc5n4[B-](F)(F)[N+]4=C(c6ccc[nH]6)C=CC4=C5)cc32)CC1 [Clozapine-b-2-NB590] | – | – | – | – | – | – | – | – | – | – | – | – | NanoBRET Fold Response ([1]; 0.1μM tracer): 1.01; NanoBRET Fold Response ([1]; 1μM tracer): 0.93; NanoBRET Fold Response ([2]; 0.1μM tracer): 1.02; NanoBRET Fold Response ([2]; 1μM tracer): 0.99; NanoBRET Fold Response ([3]; 0.1μM tracer): 1.31; NanoBRET Fold Response ([3]; 1μM tracer): 0.89; NanoBRET Fold Response ([4]; 0.1μM tracer): 1.03; NanoBRET Fold Response ([4]; 1μM tracer): 1.05; NanoBRET Fold Response ([5]; 0.1μM tracer): 1.02; NanoBRET Fold Response ([5]; 1μM tracer): 1.41; NanoBRET Fold Response ([6]; 0.1μM tracer): 1.01; NanoBRET Fold Response ([6]; 1μM tracer): 1.00
CN1CCN(C2=Nc3cc(Cl)ccc3N(CC(=O)NCCOCCOCCOCCOCCNC(=O)CCc3ccc4n3[B-](F)(F)[N+]3=C(c5ccc[nH]5)C=CC3=C4)c3ccccc32)CC1 [Clozapine-c-2-NB590] | – | – | – | – | – | – | – | – | – | – | – | – | NanoBRET Fold Response ([1]; 0.1μM tracer): 0.94; NanoBRET Fold Response ([1]; 1μM tracer): 0.75; NanoBRET Fold Response ([2]; 0.1μM tracer): 1.00; NanoBRET Fold Response ([2]; 1μM tracer): 0.87; NanoBRET Fold Response ([3]; 0.1μM tracer): 0.89; NanoBRET Fold Response ([3]; 1μM tracer): 0.91; NanoBRET Fold Response ([4]; 0.1μM tracer): 1.02; NanoBRET Fold Response ([4]; 1μM tracer): 1.06; NanoBRET Fold Response ([5]; 0.1μM tracer): 0.66; NanoBRET Fold Response ([5]; 1μM tracer): 1.14; NanoBRET Fold Response ([6]; 0.1μM tracer): 1.01; NanoBRET Fold Response ([6]; 1μM tracer): 1.04
O=C(CCOCCOCCOCCOCCNC(=O)CCc1ccc2n1[B-](F)(F)[N+]1=C(c3ccc[nH]3)C=CC1=C2)NCCCN1CCN(C2=Nc3ccccc3Oc3ccc(Cl)cc32)CC1 [Loxapine-a-2-NB590] | 0.97 | 0.81 | 1.12 | 1.00 | 0.91 | 1.25 | 1.04 | 1.04 | 1.20 | 1.16 | 1.00 | 1.01 | –
COc1ccccc1N1CCN(CCCCN2C(=O)c3ccc(CNC(=O)CCOCCNC(=O)c4ccc(CNC(=O)CCc5ccc6n5[B-](F)(F)[N+]5=C(c7ccc[nH]7)C=CC5=C6)cc4)cc3C2=O)CC1 [NAN-190-3-NB590] | 0.82 | 0.94 | 0.93 | 1.07 | 1.39 | 0.60 | 1.05 | 0.83 | 1.32 | 0.66 | 1.15 | 0.93 | –
O=C(CCc1ccc2n1[B-](F)(F)[N+]1=C(c3ccc[nH]3)C=CC1=C2)NCc1ccc(C(=O)NCCOCCC(=O)N[C@@H]2CC[C@@]3(O)[C@H]4Cc5ccc(O)c6c5[C@@]3(CCN4CC3CC3)[C@H]2O6)cc1 [Naltrexone-3-NB590] | 1.12 | 0.70 | 0.24 | 0.95 | 1.22 | 0.79 | 1.06 | 1.06 | 1.44 | 0.69 | 1.02 | 0.91 | –
Cc1cc2c(s1)Nc1ccccc1N=C2N1CCN(CCCNC(=O)CCOCCOCCOCCOCCNC(=O)CCc2ccc3n2[B-](F)(F)[N+]2=C(c4ccc[nH]4)C=CC2=C3)CC1 [Olanzapine-a-2-NB590] | 1.00 | 0.59 | 0.98 | 1.05 | 1.09 | 1.22 | 1.00 | 1.07 | 1.27 | 1.15 | 1.00 | 0.98 | –
O=C(CCc1ccc2n1[B-](F)(F)[N+]1=C(c3ccc[nH]3)C=CC1=C2)NCc1ccc(C(=O)NCCOCCOCCNCC(O)COc2cccc3ccccc23)cc1 (stereo not drawn) [Propranolol-3-NB590] | – | – | – | – | – | – | – | – | – | – | – | – | NanoBRET Fold Response ([1]; 0.1μM): 0.99; NanoBRET Fold Response ([1]; 1μM): 1.19; NanoBRET Fold Response ([2]; 0.1μM): 1.05; NanoBRET Fold Response ([2]; 1μM): 0.98; NanoBRET Fold Response ([3]; 0.1μM): 1.26; NanoBRET Fold Response ([3]; 1μM): 1.01; NanoBRET Fold Response ([4]; 0.1μM): 0.98; NanoBRET Fold Response ([4]; 1μM): 0.99; NanoBRET Fold Response ([5]; 0.1μM): 1.01; NanoBRET Fold Response ([5]; 1μM): 1.02; NanoBRET Fold Response ([6]; 0.1μM): 0.99; NanoBRET Fold Response ([6]; 1μM): 0.88
O=C(CCc1ccc2n1[B-](F)(F)[N+]1=C(c3ccc[nH]3)C=CC1=C2)NCCOCCOCCNC(=O)OCCOCCN1CCN(C2=Nc3ccccc3Sc3ccccc32)CC1 [Quetiapine-a-2-NB590] | 1.00 | 0.88 | 1.13 | 1.03 | 0.93 | 0.96 | 0.97 | 1.06 | 1.02 | 0.86 | 0.98 | 1.12 | –
